Laboratory results published in patent publication US20090209494A1, “21-DEOXYMACBECIN ANALOGUES USEFUL AS ANTITUMOR AGENTS” (priority 2005, published 2009).
Converted amounts (≈) assume the structure as drawn.

What was measured:
Hsp90 = Hsp90 (Homo sapiens, UniProt P07900); details: cited from earlier work
DU145 [1] = test: in vitro anticancer activity in combination with compound 14, modified propidium iodide assay; assay type: cell-based, human
Procedure: Standard agents were applied at 10 concentrations in sextuplicates in half-log increments. […] Growth inhibition is expressed as treated/control×100 (% T/C), and IC70 values for each combination were determined by plotting compound concentration versus cell viability.
In vitro evaluation of 14 for anticancer activity when combined with standard cytotoxic agents against the tumour cell line DU145 in a monolayer proliferation assay was carried out as described in the general methods using a modified propidium iodide assay.

MCF7 = test: monolayer proliferation assay (modified propidium iodide assay), MCF7; assay type: cell-based, human; details: 4 days exposure, median of duplicate experiments
Procedure: (§1) In vitro evaluation of compounds for anticancer activity in a panel of 38 human tumour cell lines in a monolayer proliferation assay was carried out at the Oncotest Testing Facility, Institute for Experimental Oncology, Oncotest GmbH, Freiburg.
(§2) The Oncotest cell lines are established from human tumor xenografts as described by Roth et al., (1999). The origin of the donor xenografts was described by Fiebig et al., (1999). Other cell lines are either obtained from the NCl (H460, SF-268, OVCAR-3, DU145, MDA-MB-231, MDA-MB-468) or purchased from DSMZ, Braunschweig, Germany (LNCAP).
(§3) All cell lines, unless otherwise specified, were grown at 37° C. in a humidified atmosphere (95% air, 5% CO2) in a ‘ready-mix’ medium containing RPMI 1640 medium, 10% fetal calf serum, and 0.1 mg/mL gentamicin (PAA, Cölbe, Germany).
(§4) A modified propidium iodide assay was used to assess the effects of the test compound(s) on the growth of human tumour cell lines (Dengler et al., (1995)).
(§5) Briefly, cells were harvested from exponential phase cultures by trypsinization, counted and plated in 96 well flat-bottomed microtitre plates at a cell density dependent on the cell line (5-10.000 viable cells/well). After 24 h recovery to allow the cells to resume exponential growth, 0.010 mL of culture medium (6 control wells per plate) or culture medium containing a 21-deoxymacbecin analogue was added to the wells. Each concentration was plated in triplicate. […] Following 4 days of continuous exposure, cell culture medium with or without test compound was replaced by 0.2 mL of an aqueous propidium iodide (PI) solution (7 mg/L). To measure the proportion of living cells, cells were permeabilized by freezing the plates. After thawing the plates, fluorescence was measured using the Cytofluor 4000 microplate reader (excitation 530 nm, emission 620 nm), giving a direct relationship to the total number of viable cells.
(§6) Growth inhibition was expressed as treated/control×100 (% T/C). For active compounds, IC70 values were estimated by plotting compound concentration versus cell viability.
(§7) In vitro evaluation of the test compounds for anticancer activity in a panel of human tumour cell lines in a monolayer proliferation assay was carried out as described in the general methods using a modified propidium iodide assay.

DU145 [2] = test: monolayer proliferation assay (modified propidium iodide assay), DU145; assay type: cell-based, human; details: 4 days exposure, median of duplicate experiments
Procedure: as §1, §2, §3, §4, §5, §6, §7

251L = test: monolayer proliferation assay (modified propidium iodide assay), 251L; assay type: cell-based, human; details: 4 days exposure, median of duplicate experiments
Procedure: as §1, §2, §3, §4, §5, §6, §7

SF268 = test: monolayer proliferation assay (modified propidium iodide assay), SF268; assay type: cell-based, human; details: 4 days exposure, median of duplicate experiments
Procedure: as §1, §2, §3, §4, §5, §6, §7

394NL = test: monolayer proliferation assay (modified propidium iodide assay), 394NL; assay type: cell-based, human; details: 4 days exposure, median of duplicate experiments
Procedure: as §1, §2, §3, §4, §5, §6, §7

Yeast Hsp90 = Yeast Hsp90 (Saccharomyces cerevisiae, UniProt P02829); test: Hsp90 binding, isothermal titration calorimetry
Chain of Yeast Hsp90 (P02829 whole entry): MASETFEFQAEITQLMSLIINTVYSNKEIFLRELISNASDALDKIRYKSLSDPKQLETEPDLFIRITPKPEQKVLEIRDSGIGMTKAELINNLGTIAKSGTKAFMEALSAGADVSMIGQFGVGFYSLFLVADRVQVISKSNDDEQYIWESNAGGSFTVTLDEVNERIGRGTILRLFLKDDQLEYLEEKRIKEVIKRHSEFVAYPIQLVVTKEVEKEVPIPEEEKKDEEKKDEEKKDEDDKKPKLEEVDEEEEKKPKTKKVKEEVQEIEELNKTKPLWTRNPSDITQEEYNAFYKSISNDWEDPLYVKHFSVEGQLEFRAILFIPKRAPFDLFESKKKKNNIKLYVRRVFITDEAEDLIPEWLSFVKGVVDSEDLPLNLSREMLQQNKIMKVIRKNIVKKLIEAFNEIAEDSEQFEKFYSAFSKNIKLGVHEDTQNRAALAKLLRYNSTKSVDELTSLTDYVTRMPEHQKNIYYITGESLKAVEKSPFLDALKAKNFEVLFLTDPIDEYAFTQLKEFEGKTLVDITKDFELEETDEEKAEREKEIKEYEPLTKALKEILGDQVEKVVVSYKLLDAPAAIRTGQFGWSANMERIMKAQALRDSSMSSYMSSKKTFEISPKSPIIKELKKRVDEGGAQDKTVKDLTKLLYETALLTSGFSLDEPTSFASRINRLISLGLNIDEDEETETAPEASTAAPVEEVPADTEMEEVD
Procedure: Yeast Hsp90 was dialysed against 20 mM Tris pH 7.5 containing 1 mM EDTA and 5 mM NaCl and then diluted to 0.008 mM in the same buffer, but containing 2% DMSO. The test compounds were dissolved in 100% DMSO at a concentration of 50 mM and subsequently diluted to 0.1 mM in the same buffer as for Hsp90 with 2% DMSO. Heats of interaction were measured at 30° C. on a MSC system (Microcal), with a cell volume of 1.458 mL. 10 aliquots of 0.027 mL of 0.100 mM of each test compound were injected into 0.008 mM yeast Hsp90. Heats of dilution were determined in a separate experiment by injecting the test compound into buffer containing 2% DMSO, and the corrected data fitted using a nonlinear least square curve-fitting algorithm (Microcal Origin) with three floating variables: stoichiometry, binding constant and change in enthalpy of interaction.

[3] = biological target: terminal deoxynucleotidyl transferase (Homo sapiens, UniProt P04053); details: Ono et al., 1982; cited from earlier work
Chain of terminal deoxynucleotidyl transferase (P04053 whole entry, species assumed): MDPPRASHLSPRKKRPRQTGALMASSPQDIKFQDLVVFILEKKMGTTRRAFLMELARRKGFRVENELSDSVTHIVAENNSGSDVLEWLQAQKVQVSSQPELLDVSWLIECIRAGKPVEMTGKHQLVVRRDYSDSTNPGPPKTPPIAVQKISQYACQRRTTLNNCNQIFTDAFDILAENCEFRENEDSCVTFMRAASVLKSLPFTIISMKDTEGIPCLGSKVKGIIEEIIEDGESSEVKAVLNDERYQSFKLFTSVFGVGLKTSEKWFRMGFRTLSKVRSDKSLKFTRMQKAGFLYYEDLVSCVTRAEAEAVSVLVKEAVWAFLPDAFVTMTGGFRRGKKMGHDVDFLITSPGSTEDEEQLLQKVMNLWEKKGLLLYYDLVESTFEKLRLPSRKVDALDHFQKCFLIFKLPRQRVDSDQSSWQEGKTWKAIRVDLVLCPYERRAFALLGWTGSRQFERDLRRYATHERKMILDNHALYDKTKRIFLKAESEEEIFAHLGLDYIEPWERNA

H460 = test: monolayer proliferation assay (modified propidium iodide assay), H460; assay type: cell-based, human; details: 4 days exposure, median of duplicate experiments
Procedure: as §1, §2, §3, §4, §5, §6, §7

Solubility assay = assay type: physicochemical; details: aqueous buffer, kinetic from dmso stock; 2% DMSO in PBS pH 7.3; shaken up to six hours; maximum measurable 0.5 mM
Procedure: Solutions (25 mM) of the test compounds were prepared by dissolving 3-5 mg aliquots in the appropriate amount of DMSO.
Aliquots (0.01 mL) were added to 0.490 mL of pH 7.3 PBS in glass vials. For each time point, 3 PBS vials were prepared in amber glass vials. For the six hour time point triplicate aliquots in DMSO were also prepared.
The resulting 0.5 mM solutions were shaken for up to six hours, with vials removed for analysis at 1, 3 and 6 hours. Samples were analysed by HPLC (0.025 mL injections).
Solubility in 2% DMSO in PBS at each time point was determined by comparing total peak areas for each chromatogram with mean total peak area for chromatograms produced from the corresponding 6 hour DMSO solutions. (Mean total peak area in DMSO solutions was assumed to be equivalent to a 0.5 mM solution).

OVCAR3 = test: monolayer proliferation assay (modified propidium iodide assay), OVCAR3; assay type: cell-based, human; details: 4 days exposure, median of duplicate experiments
Procedure: as §1, §2, §3, §4, §5, §6, §7

1138L = test: monolayer proliferation assay (modified propidium iodide assay), 1138L; assay type: cell-based, human; details: 4 days exposure, median of duplicate experiments
Procedure: as §1, §2, §3, §4, §5, §6, §7

Reverse transcriptase = details: Ono et al., 1982; cited from earlier work
LNCAP = test: monolayer proliferation assay (modified propidium iodide assay), LNCAP; assay type: cell-based, human; details: 4 days exposure, median of duplicate experiments
Procedure: as §1, §2, §3, §4, §5, §6, §7

[4] = concentration of 14: 0 nM (standard agent alone)

Q: Which results are given for `CO[C@H]1C[C@H](C)Cc2cc(O)cc(c2)NC(=O)/C=C/CC[C@H](OC)[C@@H](OC(N)=O)/C(C)=C/[C@H](C)[C@H]1O` [KOSN1559]?
A: binding affinity to Hsp90, greater than 17-AAG (Hsp90; relative to 17-AAG): 8 fold; binding affinity to Hsp90, greater than geldanamycin (Hsp90; relative to geldanamycin): 4 fold

Q: Which results are given for `O=P1(NCCCl)OCCCN1CCCl` (stereo not shown) [ifosfamid]?
A: IC70 of standard agent (DU145 [1]; combined with 14 at 80 nM): 80570 ng/mL; IC70 of standard agent (DU145 [1]; combined with 14 at 120 nM): 52090 ng/mL; IC70 of standard agent (DU145 [1]; combined with 14 at 160 nM): 17320 ng/mL; IC70 of standard agent (DU145 [1]; [4]): 90140 ng/mL

Q: Which results are given for `CO[C@H]1[C@@H](OC)C[C@H](C)[C@@H](OC)C2=CC(=O)C=C(NC(=O)/C(C)=C/C=C\[C@H](C)[C@@H](OC(N)=O)/C(C)=C/[C@@H]1C)C2=O` [macbecin]?
A: Test/Control (%) at drug concentration (MCF7; 1 μg/mL): 42%; Test/Control (%) at drug concentration (MCF7; 10 μg/mL): 19%; Test/Control (%) at drug concentration (DU145 [2]; 1 μg/mL): 13%; Test/Control (%) at drug concentration (DU145 [2]; 10 μg/mL): 5%; Test/Control (%) at drug concentration (251L; 1 μg/mL): 58%; Test/Control (%) at drug concentration (251L; 10 μg/mL): 44%; Test/Control (%) at drug concentration (SF268; 1 μg/mL): 40%; Test/Control (%) at drug concentration (SF268; 10 μg/mL): 6%; Test/Control (%) at drug concentration (394NL; 1 μg/mL): 16%; Test/Control (%) at drug concentration (394NL; 10 μg/mL): 13%; Kd (Yeast Hsp90): 240 nM; terminal deoxynucleotidyl transferase activity inhibition [3]: not inhibited; Test/Control (%) at drug concentration (H460; 1 μg/mL): 62%; Test/Control (%) at drug concentration (H460; 10 μg/mL): 25%; solubility (Solubility assay): 81 µM (≈ 45.3 µg/mL); Test/Control (%) at drug concentration (OVCAR3; 1 μg/mL): 54%; Test/Control (%) at drug concentration (OVCAR3; 10 μg/mL): 11%; Test/Control (%) at drug concentration (1138L; 1 μg/mL): 71%; Test/Control (%) at drug concentration (1138L; 10 μg/mL): 31%; Reverse transcriptase activity inhibition (Reverse transcriptase): not inhibited; Test/Control (%) at drug concentration (LNCAP; 1 μg/mL): 34%; Test/Control (%) at drug concentration (LNCAP; 10 μg/mL): 32%

Q: Which results are given for `CO[C@@]12[C@H](COC(N)=O)C3=C(C(=O)C(C)=C(N)C3=O)N1C[C@@H]1N[C@@H]12` [mitomycin, mitomycin C]?
A: IC70 of standard agent (DU145 [1]; combined with 14 at 30 nM): 112 ng/mL; IC70 of standard agent (DU145 [1]; combined with 14 at 50 nM): 87 ng/mL; IC70 of standard agent (DU145 [1]; combined with 14 at 80 nM): 56 ng/mL; IC70 of standard agent (DU145 [1]; [4]): 165 ng/mL

Q: With `O=C1c2c(O)ccc(O)c2C(=O)c2c(NCCNCCO)ccc(NCCNCCO)c21` [mitoxantrone] as the compound, how does the “IC70 of standard agent” value (DU145 [1]; combined with 14 at 80 nM) read?
A: Its value is 1000 ng/mL.

Q: What about the “IC70 of standard agent” value (DU145 [1]; combined with 14 at 120 nM) of the same compound?
A: The value was 1250 ng/mL.

Q: And the “IC70 of standard agent” value (DU145 [1]; combined with 14 at 160 nM)?
A: Its value is 110 ng/mL.

Q: And the “IC70 of standard agent” value (DU145 [1]; [4])?
A: The value was 2080 ng/mL.

Q: Which results are given for `CC[C@]1(O)C[C@@H]2CN(CCc3c([nH]c4ccccc34)[C@@](C(=O)OC)(c3cc4c(cc3OC)N(C)[C@H]3[C@@](O)(C(N)=O)[C@H](O)[C@]5(CC)C=CCN6CC[C@]43[C@@H]65)C2)C1` [vindesine]?
A: IC70 of standard agent (DU145 [1]; combined with 14 at 80 nM): 0.8 ng/mL; IC70 of standard agent (DU145 [1]; combined with 14 at 120 nM): 0.6 ng/mL; IC70 of standard agent (DU145 [1]; combined with 14 at 160 nM): 0.1 ng/mL; IC70 of standard agent (DU145 [1]; [4]): 0.9 ng/mL
